Reference: patent US8748471B2, “2-alkyl-cycloalk(en)yl-carboxamides” (priority 2004, dated 2014)
Like-named read-outs stand apart in the source and are kept apart here.

Experiments:
[1] = tested on: Alternaria solani; experiment: Alternaria test (tomato)/protective; format: in vivo; settings: protective, application rate 750 g/ha, evaluation 7 days after inoculation, 0% = control, 100% = no infection
Description: (§1) To produce a suitable preparation of active compound, 1 part by weight of active compound is mixed with the stated amounts of solvent and emulsifier, and the concentrate is diluted with water to the desired concentration.
To test for protective activity, young tomato plants are sprayed with the preparation of active compound at the stated application rate. 1 day after the treatment, the plants are inoculated with a spore suspension of Alternaria solani and then remain at 100% relative atmospheric humidity and 20° C. for 24 h. The plants then remain at 96% relative atmospheric humidity and a temperature of 20° C.
Evaluation is carried out 7 days after the inoculation. 0% means an efficacy which corresponds to that of the control, whereas an efficacy of 100% means that no infection is observed.

[2] = tested on: Podosphaera leucotricha; experiment: Podosphaera test (apple)/protective; format: in vivo; settings: protective, application rate 100 g/ha, evaluation 10 days after inoculation, 0% = control, 100% = no infection
Description: (§2) To produce a suitable preparation of active compound, 1 part by weight of active compound is mixed with the stated amounts of solvents and emulsifier, and the concentrate is diluted with water to the desired concentration.
To test for protective activity, young plants are sprayed with the preparation of active compound at the stated application rate. After the spray coating has dried on, the plants are inoculated with an aqueous spore suspension of Podosphaera leucotricha. The plants are then placed in a greenhouse at about 23° C. and a relative atmospheric humidity of about 70%.
(§3) Evaluation is carried out 10 days after the inoculation. 0% means an efficacy which corresponds to that of the control, whereas an efficacy of 100% means that no infection is observed.

[3] = log P determination by HPLC on reverse-phase column (C 18), acidic range pH 2.3 (EEC Directive 79/831 Annex V. A8); format: physicochemical; settings: for logP: Table 1 (I-c); for chromatographic logP: reverse-phase HPLC column (C 18)
Description: The stated log P values were determined in accordance with EEC Directive 79/831 Annex V. A8 by HPLC (High Performance Liquid Chromatography) on a reverse-phase column (C 18). Temperature: 43° C. Mobile phases for the determination in the acidic range (pH 2.3): 0.1% aqueous phosphoric acid, acetonitrile; linear gradient from 10% acetonitrile to 90% acetonitrile. Calibration was carried out using unbranched alkan-2-ones (having 3 to 16 carbon atoms) with known log P values (determination of the log P values by the retention times using linear interpolation between two successive alkanones).

[4] = tested on: Botrytis cinerea; experiment: Botrytis test (bean)/protective; format: in vivo; settings: protective, application rate 500 g/ha, evaluation 2 days after inoculation (size of infected areas), 0% = control, 100% = no infection
Description: as §2
To test for protective activity, young plants are sprayed with the preparation of active compound at the stated application rate. After the spray coating has dried on 2 small pieces of agar colonized by Botrytis cinerea are placed onto each leaf. The inoculated plants are placed in a dark chamber at about 20° C. and 100% relative atmospheric humidity.
2 days after the inoculation, the size of the infected areas on the leaves is evaluated. 0% means an efficacy which corresponds to that of the control, whereas an efficacy of 100% means that no infection is observed.

[5] = tested on: Venturia inaequalis; experiment: Venturia test (apple)/protective; format: in vivo; settings: protective, application rate 100 g/ha, evaluation 10 days after inoculation, 0% = control, 100% = no infection
Description: as §2
To test for protective activity, young plants are sprayed with the preparation of active compound at the stated application rate. After the spray coating has dried on, the plants ate inoculated with an aqueous conidia suspension of the apple scab pathogen Venturia inaequalis and then remain in an incubation cabinet as about 20° C. and 100% relative atmospheric humidity for 1 day. The plants are then placed in a greenhouse at about 21° C. and a relative atmospheric humidity of about 90%.
as §3

[6] = tested on: Puccinia recondita; experiment: Puccinia test (wheat)/protective; format: in vivo; settings: 240 h, protective, application rate 500 g/ha, evaluation 10 days after inoculation, 0% = control, 100% = no infection, read-out: Efficacy in %
Description: as §1
To test for protective activity, young plants are sprayed with the preparation of active compound at the stated application rate. After the spray coating has dried on, the plants are sprayed with a conidia suspension of Puccinia recondita. The plants remain in an incubation cabinet at 20° C. and 100% relative atmospheric humidity for 48 hours. The plants are then placed in a greenhouse at a temperature of about 20° C. and a relative atmospheric humidity of 80%.
as §3

[7] = pH 2.3, HPLC C18, 43° C., main diastereomer or, where several values in a cell, the individual diastereomers
[8] = pH 2.3, Table 1 (I-c), pH 2.3, HPLC C18, 43° C., main diastereomer or, where several values in a cell, the individual diastereomers, read-out: logP

Structure (SMILES): Cc1nc(C(F)F)c(C(=O)NC2CCCCC2C(C)CC(C)C)s1 (centres unmarked) [I-c-4, 4-(difluoromethyl)-N-[2-(1,3-dimethylbutyl)cyclohexyl]-2-methyl-1,3-thiazole-5-carboxamide]
- Efficacy in % [1]: 100%
- Efficacy in % [2]: 100%
- log P (pH 2.3) ([3]; Example 1, pH 2.3, two values = mixture of diastereomers): 4.53
- logP [3, 7]: 4.53
- chromatographic logP [3, 8]: 4.45
- chromatographic logP ([3]; pH 2.3, text of Example 1, pH 2.3, two values = mixture of diastereomers, read-out: log P (pH 2.3)): 4.45
- Efficacy in % [4]: 95%
- Efficacy in % [5]: 98%
- pest or weed control at 500 g/ha [6]: 100%

Structure (SMILES): CC(C)CC(C)C1CCCCC1NC(=O)c1nccnc1Cl (centres unmarked) [I-c-5]
- Efficacy in % [1]: 100%
- Efficacy in % [2]: 100%
- logP [3, 7]: 4.23
- chromatographic logP [3, 8]: 4.12
- Efficacy in % [4]: 99%
- Efficacy in % [5]: 100%
- pest or weed control at 500 g/ha [6]: 100%

Structure (SMILES): CC(C)CC(C)C1CCCCC1NC(=O)c1cn(C)nc1C(F)F (centres unmarked) [I-c-7]
- Efficacy in % [1]: 100%
- Efficacy in % [2]: 100%
- logP [3, 7]: 4.28
- chromatographic logP [3, 8]: 3.88
- Efficacy in % [4]: 94%
- Efficacy in % [5]: 100%
- pest or weed control at 500 g/ha [6]: 100%
